Experimental data taken from patent US20250145561A1, “4-SUBSTITUTED-PHENYL ACETAMIDES AND ARYLUREAS AS AGONISTS FOR THE ORPHAN RECEPTOR GPR88” (RESEARCH TRIANGLE INSTITUTE, priority 2022, published 2025).

Molecular target: T1, GPR88 (Homo sapiens, UniProt Q9GZN0)
T1 construct: expressed in transfected cells
Assay: Lance Ultra TR-FRET cAMP assay using stable PPLS-HA-GPR88 CHO cells
Assay type: cell-based
Conditions: for Emax: CHO; for EC50 / cAMP pEC50: stable PPLS-HA-GPR88 CHO cells; for EC50: value in parentheses beside pEC50; for cAMP pEC50: 300 nM forskolin, mean ± standard error of at least three independent experiments in duplicate
Experimental: The compounds of the present disclosure offer potent agonism to the orphan receptor GPR88. As such, the compounds of the present disclosure provide therapeutic potential for the treatment of striatal associated disorders such as Parkinson's disease, schizophrenia, and alcohol addiction. All compounds were evaluated for the GPR88 agonist activity in the inventors' previously established in vitro GPR88 Lance TR-FRET cAMP assay. See, supra, Jin et al., 2018, Rahman et al., 2020, and Rahman et al., 2021. As will be described, the TR-FRET signal was converted to fmol cAMP by interpolating from the standard cAMP curve. Fmol cAMP was plotted against the log of compound concentration and data were fit to a three-parameter logistic curve to generate maximum response (Emax) and EC50 values.
Lance™ Ultra cAMP assay using stable PPLS-HA-GPR88 CHO cells. All cAMP assays were performed using the inventors' previously published methods. […] ACS Chemical Neuroscience 2016, 7, 1418-1432, which is incorporated by reference herein with regard to such teaching. Stimulation buffer containing 1× Hank's Balanced Salt Solution (HBSS), 5 mM HEPES, 0.1% BSA stabilizer, and 0.5 mM final IBMX was prepared and titrated to pH 7.4 at room temperature. Serial dilutions of the test compounds (5 μL) and 300 nM forskolin (5 μL), both prepared at 4× the desired final concentration in 2% DMSO/stimulation buffer, were added to a 96-well white ½ area microplate (PerkinElmer). A cAMP standard curve was prepared at 4× the desired final concentration in stimulation buffer and 5 μL was added to the assay plate. Stable PPLS-HA-GPR88 CHO cells were lifted with versene and spun at 270 g for 10 minutes. The cell pellet was resuspended in stimulation buffer and 4,000 cells (10 μL) were added to each well except wells containing the cAMP standard curve. After incubating for 30 min at room temperature, Eu-cAMP tracer and uLIGHT-anti-cAMPworking solutions were added per the manufacturer's instructions. After incubation at room temperature for 1 hour, the TR-FRET signal (ex 337 nm) was read on a CLARIOstar multimode plate reader (BMG Biotech, Cary, NC).
Data Analysis. The TR-FRET signal (665 nm) was converted to fmol cAMP by interpolating from the standard cAMP curve. Fmol cAMP was plotted against the log of compound concentration and data were fit to a three-parameter logistic curve to generate EC50 values (Prism, version 6.0, GraphPad Software, Inc., San Diego, CA).

T1 sequence (Q9GZN0 whole entry): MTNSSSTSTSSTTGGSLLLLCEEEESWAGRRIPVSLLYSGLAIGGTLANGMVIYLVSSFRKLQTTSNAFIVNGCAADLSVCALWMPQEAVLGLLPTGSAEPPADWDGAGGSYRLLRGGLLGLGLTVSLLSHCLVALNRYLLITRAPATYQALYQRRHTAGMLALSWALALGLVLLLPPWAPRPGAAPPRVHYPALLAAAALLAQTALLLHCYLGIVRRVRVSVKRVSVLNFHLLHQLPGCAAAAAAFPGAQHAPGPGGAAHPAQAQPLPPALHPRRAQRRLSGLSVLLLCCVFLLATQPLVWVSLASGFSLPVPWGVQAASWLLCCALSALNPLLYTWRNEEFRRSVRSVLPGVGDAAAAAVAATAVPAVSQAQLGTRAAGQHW

Emax | EC50 | cAMP pEC50 | SMILES
103 ± 4% | 363 nM | – | CO[C@H](C)[C@H](N)CN(C(=O)N[C@@H](C)c1ccccc1)c1ccc(C#CCC(C)C)cc1 [Compound 60, 3-[(2R,3R)-2-amino-3-methoxybutyl]-3-[4-(4-methylpent-1-yn-1-yl)phenyl]-1-[(1 S)-1-phenylethyl]urea]
– | – | Inactive | CCCc1ccc(-c2ccc(N(C[C@@H](N)[C@@H](C)CC)C(=O)N[C@@H]3C[C@H]3c3ccccc3)cc2)cc1 [Compound 44, 1-[(2S,3S)-2-Amino-3-methylpentyl]-3-[(1 R,2S)-2-phenylcyclopropyl]-1-(4′-propyl-[1,1′-biphenyl]-4-yl}urea]
97 ± 4% | 2000 nM | – | CCCc1ccc(-c2ccc(N(C[C@@H](N)[C@@H](C)CC)C(=O)NCc3ccccc3)cc2)cc1 [Compound 40, 3-[(2S,3S)-2-Amino-3-methylpentyl]-1-benzyl-3-{4′-propyl-[1,1′-biphenyl]-4-yl}urea]
99 ± 6% | 1290 nM | – | CCCc1ccc(-c2ccc(C(C(=O)N[C@H](C)c3ccccc3)C(=O)OC)cc2)cc1 (mixture of isomers) [Compound 28, Methyl 2-{[(1 R)-1-Phenylethyl]carbamoyl}-2-{4′-propyl-[1,1′-biphenyl]-4-yl}acetate]
110 ± 5% | 2290 nM | – | CCCc1ccc(-c2ccc(N(C[C@@H](N)[C@@H](C)CC)C(=O)N[C@H]3C[C@@H]3c3ccccc3)cc2)cc1 [Compound 45, 1-[(2S,3S)-2-Amino-3-methylpentyl]-3-[(1 S,2R)-2-phenylcyclopropyl]-1-(4′-propyl-[1,1′-biphenyl]-4-yl}urea]
97 ± 12% | 2820 nM | – | CCCc1ccc(-c2ccc(N(C[C@@H](N)[C@@H](C)CC)C(=O)N(C)c3ccccc3)cc2)cc1 [Compound 39, 3-[(2S,3S)-2-Amino-3-methylpentyl]-1-methyl-1-phenyl-3-{4′-propyl-[1,1′-biphenyl]-4-yi}urea]
100 ± 4% | 407 nM | – | CO[C@H](C)[C@H](N)CN(C(=O)N[C@@H](C)c1ccccc1)c1ccc(-c2ccc(OC(C)C)cc2)cc1 [Compound 59, 3-[(2R,3R)-2-Amino-3-methoxybutyl]-1-[(1 S)-1-phenylethyl]-3-[4′-(propan-2-yloxy)-[1,1′-biphenyl]-4-yl]urea]
129 ± 4% | 1410 nM | – | CCCc1ccc(-c2ccc(N(C[C@H](N)CC(C)C)C(=O)N[C@@H](C)c3ccccc3)cc2)cc1 [Compound 51, 3-[(2R)-2-Amino-4-methylpentyl]-1-[(1 S)-1-phenylethyl]-3-{4′-propyl-[1,1′-biphenyl]-4-yl}urea]
– | – | Inactive | CCCC(C)COc1ccc([C@@H](CO)C(=O)N[C@@H](C)c2ccccc2)cc1 (stereo partly drawn) [Compound 5, (2S)-3-Hydroxy-2-{4-[(2-methylpentyl)oxy]phenyl}-N-[(1S)-1-phenylethyl]propenamide]
112 ± 8% | 1200 nM | – | CCCc1ccc(-c2ccc(N(C[C@@H](N)CC(C)C)C(=O)N[C@@H](C)c3ccccc3)cc2)cc1 [Compound 50, 3-[(2S)-2-Amino-4-methylpentyl]-1-[(1 S)-1-phenylethyl]-3-{4′-propyl-[1,1′-biphenyl]-4-yl}urea]
96 ± 3% | 1100 nM | – | CCCc1ccc(-c2ccc([C@@H](Cn3cncn3)C(=O)N[C@H](C)c3ccccc3)cc2)cc1 [Compound 30]
106 ± 3% | 324 nM | – | CCCc1ccc(-c2ccc(N(C[C@@H](N)[C@@H](C)OC)C(=O)N[C@@H](C)c3ccccc3)cc2)cc1 [Compound 54, 3-[(2R,3R)-2-Amino-3-methoxybutyl]-1-[(1 S)-1-phenylethyl]-3-{4′-propyl-[1,1′-biphenyl]-4-yl}urea]
115 ± 5% | 2570 nM | – | CCCc1ccc(-c2ccc(N(C[C@@H](N)[C@@H](C)CC)C(=O)N[C@@H](C)c3ccco3)cc2)cc1 [Compound 49, 1-[(2S,3S)-2-Amino-3-methylpentyl]-3-[(1 S)-1-(furan-2-yl)ethyl]-1-{4′-propyl-[1,1′-biphenyl]-4-yl}urea]
87 ± 5% | 263 nM | – | C[C@@H](NC(=O)[C@H](CO)c1ccc(-c2ccc(CC3CC3)cc2)cc1)c1ccccc1 [Compound 33, (2S)-2-[4′-(Cyclopropylmethyl)-[1,1′-biphenyl]-4-yl]-3-hydroxy-N-[(1 R)-1-phenylethyl]propenamide]
96% | 631 nM | – | CCCc1ccc(-c2ccc([C@@H](Cn3ccnn3)C(=O)N[C@H](C)c3ccccc3)cc2)cc1 [Compound 31, (2S)—N-[(1 R)-1-Phenylethyl]-2-{4′-propyl-[1,1′-biphenyl]-4-yl}-3-(1H-1,2,3-triazol-1-yl)propenamide]
105 ± 2% | 1380 nM | – | CCCc1ccc(-c2ccc(C(C(=O)NC)C(=O)N[C@H](C)c3ccccc3)cc2)cc1 (mixture of isomers) [Compound 29, N-Methyl-N′-[(1 R)-1-phenylethyl]-2-{4′-propyl-[1,1′-biphenyl]-4-yl}propanediamide]
106 ± 10% | 1020 nM | – | CCCc1ccc(-c2ccc(N(C[C@@H](N)[C@@H](C)CC)C(=O)N[C@@H](C)c3ccccc3)cc2)cc1 [Compound 42, 3-[(2S,3S)-2-Amino-3-methylpentyl]-1-[(1 S)-1-phenylethyl]-3-{4′-propyl-[1,1′-biphenyl]-4-yl}urea]
94 ± 13% | 200 nM | – | CCCC(C)COc1ccc([C@@H](CO)C(=O)N[C@H](C)c2ccccc2)cc1 (stereo partly drawn) [Compound 4, (2S)-3-Hydroxy-2-{4-[(2-methylpentyl)oxy]phenyl}-N-[(1 R)-1-phenylethyl]propenamide]
103 ± 4% | 2000 nM | – | CCCc1ccc(-c2ccc(N(C[C@@H](N)[C@@H](C)CC)C(=O)N[C@@H](CC)c3ccccc3)cc2)cc1 [Compound 47, 3-[(2S,3S)-2-Amino-3-methylpentyl]-1-[(1 S)-1-phenylpropyl]-3-{4′-propyl-[1,1′-biphenyl]-4-yl}urea]

SMILES | Emax | EC50 | cAMP pEC50
C[C@@H](NC(=O)[C@H](CO)c1ccc(-c2ccc(OC3CCC3)cc2)cc1)c1ccccc1 [Compound 35, (2S)-2-{4′-Cyclobutoxy-[1,1′-biphenyl]-4-yl}-3-hydroxy-N-[(1 R)-1-phenylethyl]propenamide] | 90 ± 10% | 224 nM | –
CCCC(C)COc1ccc([C@@H](CO)C(=O)N[C@H](C)c2ccccn2)cc1 (stereo partly drawn) [Compound 21, (2S)-3-Hydroxy-2-{4-[(2-methylpentyl)oxy]phenyl}-N-[(1 R)-1-(pyridin-2-yl)ethyl]propenamide] | 93 ± 4% | – | –
CCCC(C)COc1ccc([C@@H](CO)C(=O)N[C@H](C)c2ccc(OC)cc2)cc1 (stereo partly drawn) [Compound 13, (2S)-3-Hydroxy-N-[(1 R)-1-(4-methoxyphenyl)ethyl]-2-{4-[(2-methylpentyl)oxy]phenyl}propenamide] | 94 ± 3% | – | –
CCCC(C)COc1ccc([C@H](CO)C(=O)N[C@H](C)c2ccccc2)cc1 (stereo partly drawn) [Compound 3, (2R)-3-Hydroxy-2-{4-[(2-methylpentyl)oxy]phenyl}-N-[(1 R)-1-phenylethyl]propanamide] | 77 ± 4% | – | –
CCCC(C)COc1ccc([C@@H](CO)C(=O)N[C@H](C)c2ccc(F)cc2)cc1 (stereo partly drawn) [Compound 12, (2S)—N-[(1 R)-1-(4-Fluorophenyl)ethyl]-3-hydroxy-2-{4-[(2-methylpentyl)oxy]phenyl}propenamide] | 92 ± 3% | – | –
CCCC(C)COc1ccc([C@@H](CO)C(=O)NC(C)(C)c2ccccc2)cc1 (stereo partly drawn) [Compound 19, (2S)-3-Hydroxy-2-{4-[(2-methylpentyl)oxy]phenyl}-N-(2-phenylpropan-2-yl)propenamide] | 83 ± 2% | 1260 nM | 5.90 ± 0.05
CCCC(C)COc1ccc([C@@H](CO)C(=O)N[C@H](C)c2ccco2)cc1 (stereo partly drawn) [Compound 22, (2S)—N-[(1 R)-1-(Furan-2-yl)ethyl]-3-hydroxy-2-{4-[(2-methylpentyl)oxy]phenyl}propenamide] | 108 ± 6% | – | –
CCCC(C)COc1ccc([C@@H](CO)C(=O)NCc2ccccc2)cc1 (stereo partly drawn) [Compound 15, (2S)—N-Benzyl-3-hydroxy-2-{4-[(2-methylpentyl)oxy]phenyl}propenamide] | 99 ± 9% | – | –
CCCC(C)COc1ccc([C@@H](CO)C(=O)N[C@H](CC)c2ccccc2)cc1 (stereo partly drawn) [Compound 17, (2S)-3-Hydroxy-2-{4-[(2-methylpentyl)oxy]phenyl}-N-[(1 R)-1-phenylpropyl]propenamide] | 102 ± 8% | – | –
